# Laboratory results from US20210395239A1 (Hoffmann-La Roche Inc., priority 2018, published 2021).
# Biological target: T1, hTLR9 (Homo sapiens, UniProt Q9NR96)
# T1 sequence (Q9NR96 26-1032): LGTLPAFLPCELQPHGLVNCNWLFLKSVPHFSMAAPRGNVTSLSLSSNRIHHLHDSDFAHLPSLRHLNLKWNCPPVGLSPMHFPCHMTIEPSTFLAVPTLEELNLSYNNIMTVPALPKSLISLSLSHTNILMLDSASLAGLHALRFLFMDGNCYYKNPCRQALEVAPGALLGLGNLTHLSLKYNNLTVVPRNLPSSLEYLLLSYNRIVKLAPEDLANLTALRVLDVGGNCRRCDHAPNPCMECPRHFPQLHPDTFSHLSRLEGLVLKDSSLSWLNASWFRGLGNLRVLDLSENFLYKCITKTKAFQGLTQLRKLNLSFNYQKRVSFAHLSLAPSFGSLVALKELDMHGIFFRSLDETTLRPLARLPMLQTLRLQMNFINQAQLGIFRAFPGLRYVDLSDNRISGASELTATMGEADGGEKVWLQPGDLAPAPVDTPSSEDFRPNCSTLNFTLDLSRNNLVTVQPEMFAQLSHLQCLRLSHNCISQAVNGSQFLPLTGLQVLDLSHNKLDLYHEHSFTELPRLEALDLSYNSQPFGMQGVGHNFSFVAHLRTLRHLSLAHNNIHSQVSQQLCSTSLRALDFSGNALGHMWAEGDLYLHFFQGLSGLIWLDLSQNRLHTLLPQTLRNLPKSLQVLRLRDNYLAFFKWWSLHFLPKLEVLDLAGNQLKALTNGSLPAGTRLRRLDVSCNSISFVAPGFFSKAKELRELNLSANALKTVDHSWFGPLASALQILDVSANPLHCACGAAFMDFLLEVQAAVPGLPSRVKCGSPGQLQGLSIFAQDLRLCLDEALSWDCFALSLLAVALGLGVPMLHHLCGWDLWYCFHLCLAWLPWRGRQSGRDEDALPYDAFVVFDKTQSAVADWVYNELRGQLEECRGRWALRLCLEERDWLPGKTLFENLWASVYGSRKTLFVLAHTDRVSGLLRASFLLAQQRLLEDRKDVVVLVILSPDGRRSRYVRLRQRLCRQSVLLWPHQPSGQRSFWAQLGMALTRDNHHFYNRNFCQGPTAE
# Assay: HEK293-Blue-hTLR-9 cells assay (SEAP reporter, ODN2006 stimulation)
# Format: cell-based
# Set-up: host or cells: HEK293 (HEK-Blue hTLR9)
# Conditions: HEK293-Blue-hTLR9 cells, ODN2006, 20 hrs; read-out: HEK/hTLR9 IC50
# How it was run: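 HEK293-Blue-hTLR9 cells with NF-κB/AP-1-driven SEAP reporter treated with serially diluted compound (1% DMSO final) plus ODN2006 for 20 h at 37 °C. Supernatant SEAP measured with QUANTI-Blue, 2 h at 37 °C, absorbance 620–655 nm; antagonism seen as reduced reporter signal.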
row,IC50 [nM],Compound
1,31,"[2H]c1nc2c(C#N)ccc(N3C[C@H](CN4CCN(c5nc(C)cc(N6CC(N)C6)n5)CC4)O[C@H](C)C3)c2nc1[2H] [Example 124, 8-[(2S,6R)-2-[[4-[4-(3-aminoazetidin-1-yl)-6-methyl-pyrimidin-2-yl]piperazin-1-yl]methyl]-6-methyl-morpholin-4-yl]-2,3-dideuterio-quinoxaline-5-carbonitrile]"
2,83,"Cc1cc(N2C[C@@H](N)[C@](C)(O)C2)nc(N2CCN(C[C@H]3CN(c4ccc(C#N)c5nccnc45)C[C@@H](C)O3)CC2)n1 [Example 125, 8-[(2S,6R)-2-[[4-[4-[(3R,4R)-4-amino-3-hydroxy-3-methyl-pyrrolidin-1-yl]-6-methyl-pyrimidin-2-yl]piperazin-1-yl]methyl]-6-methyl-morpholin-4-yl]quinoxaline-5-carbonitrile]"
3,113,"[2H]c1ccc2c(N3C[C@H](CN4CCN(c5nc(OC)cc(N6CC(C)(N)C6)n5)CC4)O[C@H](C)C3)ccc(C#N)c2n1 [Example 131, 5-[(2S,6R)-2-[[4-[4-(3-amino-3-methyl-azetidin-1-yl)-6-methoxy-pyrimidin-2-yl]piperazin-1-yl]methyl]-6-methyl-morpholin-4-yl]-2-deuterio-quinoline-8-carbonitrile]"
4,68,"[2H]c1ccc2c(N3C[C@H](CN4CCN(c5cnc(N6CC(C)(N)C6)cc5C)CC4)O[C@H](C)C3)ccc(C#N)c2n1 [Example 133, 5-[(2S,6R)-2-[[4-[6-(3-amino-3-methyl-azetidin-1-yl)-4-methyl-3-pyridyl]piperazin-1-yl]methyl]-6-methyl-morpholin-4-yl]-2-deuterio-quinoline-8-carbonitrile]"
5,48,"[2H]c1ccc2c(N3C[C@H](CN4CCN(c5nc(C)cc(N6C[C@H](OC)[C@@H](N)C6)n5)CC4)O[C@H](C)C3)ccc(C#N)c2n1 [Example 134, 5-[(2S,6R)-2-[[4-[4-[(3S,4S)-3-amino-4-methoxy-pyrrolidin-1-yl]-6-methyl-pyrimidin-2-yl]piperazin-1-yl]methyl]-6-methyl-morpholin-4-yl]-2-deuterio-quinoline-8-carbonitrile]"
6,56,"[2H]c1ccc2c(N3C[C@H](CN4CCN(c5nc(C)cc(N6CC(C)(N)C6)n5)CC4)O[C@H](C)C3)ccc(C#N)c2n1 [Example 135, 5-[(2S,6R)-2-[[4-[4-(3-amino-3-methyl-azetidin-1-yl)-6-methyl-pyrimidin-2-yl]piperazin-1-yl]methyl]-6-methyl-morpholin-4-yl]-2-deuterio-quinoline-8-carbonitrile]"
7,33,"[2H]c1ccc2c(N3C[C@H](CN4CCN(c5nc(C)cc(N6CC(N)C6)n5)CC4)O[C@H](C)C3)ccc(C#N)c2n1 [Example 136, 5-[(2S,6R)-2-[[4-[4-(3-aminoazetidin-1-yl)-6-methyl-pyrimidin-2-yl]piperazin-1-yl]methyl]-6-methyl-morpholin-4-yl]-2-deuterio-quinoline-8-carbonitrile]"
8,66,"[2H]c1ccc2c(N3C[C@H](CN4CCN(c5ccc(N6CC(C)(N)C6)nc5C)CC4)O[C@H](C)C3)ccc(C#N)c2n1 [Example 137, 5-[(2S,6R)-2-[[4-[6-(3-amino-3-methyl-azetidin-1-yl)-2-methyl-3-pyridyl]piperazin-1-yl]methyl]-6-methyl-morpholin-4-yl]-2-deuterio-quinoline-8-carbonitrile]"

# Second part, the compound before the results:
row,Compound,IC50 [nM]
1,"Cc1ccc(N2C[C@H](CN3CCN(c4ccnc(N5CC6(CNCCO6)C5)n4)CC3)O[C@H](C)C2)c2nccnc12 [Example 126, 2-[4-[4-[[(2S,6R)-6-methyl-4-(8-methylquinoxalin-5-yl)morpholin-2-yl]methyl]piperazin-1-yl]pyrimidin-2-yl]-5-oxa-2,8-diazaspiro[3.5]nonane]",146
2,"Cc1ccc(N2C[C@H](CN3CCN(c4ccnc(N5CCN[C@@H](C)C5)n4)CC3)O[C@H](C)C2)c2nccnc12 [Example 127, (2R,6S)-2-methyl-6-[[4-[2-[(3S)-3-methylpiperazin-1-yl]pyrimidin-4-yl]piperazin-1-yl]methyl]-4-(8-methylquinoxalin-5-yl)morpholine]",149
3,"Cc1ccc(N2C[C@H](CN3CCN(c4ccnc(N5CCN[C@H](C)C5)n4)CC3)O[C@H](C)C2)c2nccnc12 [Example 128, (2R,6S)-2-methyl-6-[[4-[2-[(3R)-3-methylpiperazin-1-yl]pyrimidin-4-yl]piperazin-1-yl]methyl]-4-(8-methylquinoxalin-5-yl)morpholine]",182
4,"Cc1ccc(N2C[C@H](CN3CCN(c4ccnc(N5C[C@H]6NCCO[C@@H]6C5)n4)CC3)O[C@H](C)C2)c2nccnc12 [Example 129, (4aR,7aR)-6-[4-[4-[[(2S,6R)-6-methyl-4-(8-methylquinoxalin-5-yl)morpholin-2-yl]methyl]piperazin-1-yl]pyrimidin-2-yl]-3,4,4a,5,7,7a-hexahydro-2H-pyrrolo[3,4-b][1,4]oxazine]",171
5,"Cc1ccc(N2C[C@H](CN3CCN(c4ccnc(N5CC(N)C5)n4)CC3)O[C@H](C)C2)c2nccnc12 [Example 130, 1-[4-[4-[[(2S,6R)-6-methyl-4-(8-methylquinoxalin-5-yl)morpholin-2-yl]methyl]piperazin-1-yl]pyrimidin-2-yl]azetidin-3-amine]",155
6,"[2H]c1ccc2c(N3C[C@H](CN4CCN(c5ccc(N6CC(C)(N)C6)nc5)CC4)O[C@H](C)C3)ccc(C#N)c2n1 [Example 132, 5-[(2S,6R)-2-[[4-[6-(3-amino-3-methyl-azetidin-1-yl)-3-pyridyl]piperazin-1-yl]methyl]-6-methyl-morpholin-4-yl]-2-deuterio-quinoline-8-carbonitrile]",140
7,"[2H]c1ccc2c(N3C[C@H](CN4CC(c5ccc(N6CC(C)(N)C6)nc5)C4)O[C@H](C)C3)ccc(C#N)c2n1 [Example 138, 5-[(2S,6R)-2-[[3-[6-(3-amino-3-methyl-azetidin-1-yl)-3-pyridyl]azetidin-1-yl]methyl]-6-methyl-morpholin-4-yl]-2-deuterio-quinoline-8-carbonitrile]",40
8,"[2H]c1ccc2c(N3C[C@H](CN4CCN(c5ncc(N6CC(C)(N)C6)cc5C)CC4)O[C@H](C)C3)ccc(C#N)c2n1 [Example 139, 5-[(2S,6R)-2-[[4-[5-(3-amino-3-methyl-azetidin-1-yl)-3-methyl-2-pyridyl]piperazin-1-yl]methyl]-6-methyl-morpholin-4-yl]-2-deuterio-quinoline-8-carbonitrile]",78
9,"[2H]c1ccc2c(N3C[C@H](CN4CC(c5ccc(N6C[C@H](OC)[C@@H](N)C6)cc5)C4)O[C@H](C)C3)ccc(C#N)c2n1 [Example 140, 5-[(2S,6R)-2-[[3-[4-[(3S,4S)-3-amino-4-methoxy-pyrrolidin-1-yl]phenyl]azetidin-1-yl]methyl]-6-methyl-morpholin-4-yl]-2-deuterio-quinoline-8-carbonitrile]",162
10,"[2H]c1ccc2c(N3C[C@H](CN4CC(c5ccc(N6CC(C)(N)C6)cc5)C4)O[C@H](C)C3)ccc(C#N)c2n1 [Example 141, 5-[(2S,6R)-2-[[3-[4-(3-amino-3-methyl-azetidin-1-yl)phenyl]azetidin-1-yl]methyl]-6-methyl-morpholin-4-yl]-2-deuterio-quinoline-8-carbonitrile]",44
